These results are taken from PMC12715762, “Discovery of VU6052254: A Novel, Potent M1 Positive Allosteric Modulator” (ACS Chemical Neuroscience, 2025).

For data set [1] the following is noted: result in words; cited from earlier work.
Data set [2] can be described thus: plasma protein binding, equilibrium dialysis (rat). It is filed as in vitro ADME. Conditions: pH 7.4, rat (r), read-out: fu,plasma. As for the experimental part:
Plasma protein binding and Brain homogenate binding: Determination of fraction unbound (f u) in plasma was conducted in vitro via equilibrium dialysis using HTDialysis (HTD) membrane plates. The top half of the plate was filled with 100 uL of Dubelco’s Phosphate Buffered Saline, pH 7.4 (DPBS). Compounds were diluted into plasma from each species (5 µM final concentration), which was aliquoted in triplicate to the ‘bottom half’ of the prepared HTD plate wells. The HTD plate was sealed and incubated for 6 hours at 37 °C. Following incubation, each well (both top and bottom halves) were transferred (20 µL) to the corresponding wells of a 96-shallow-well (V-bottom) plate. […]
The unbound fraction (f u) was calculated following the equation below, and mean values for each species were calculated from 3 replicates.
A similar approach was used to determine the degree of brain homogenate binding, which employed the same methodology and procedure with the following modifications: 1) a final compound concentration of 1 μM was used, 2) naïve rat brains were homogenized in DPBS (1:3 composition of brain: DPBS, w/w) using a Mini-Bead Beater™ machine in order to obtain brain homogenate, which was then treated in the same manner as the plasma samples in the previously described plasma protein binding assay. Fraction unbound for both plasma and brain samples was determined using Equation 4. […]
Background: In equilibrium dialysis free small molecules cross a membrane that holds back macromolecules.

A further data set deals with CYP 2C9 (Homo sapiens, UniProt P11712). In words: CYP450 inhibition. Type of data set: in vitro ADME.
A further data set concerns the target CYP 2C19 (Homo sapiens, UniProt P33261). In words: CYP450 inhibition. Type of data set: in vitro ADME.
In another data set the test system is Sprague-Dawley rats. Briefly: contextual fear conditioning (CFC). It is filed as in vivo, rat. As for the experimental part: Contextual Fear Conditioning
Contextual Fear Conditioning. Studies were conducted using conditioning chambers in sound attenuating cubicles equipped with a stainless steel grid floor for shock delivery and a video camera for recording freezing behavior (Med Associates, Fairfax, Vermont). Rats were acclimated to the apparatus for 3 days (10 minutes each day) prior to conditioning. On the training (conditioning) day, rats were pretreated by oral gavage with Vehicle (10% Tween 80) or Compound X […]
conditioning chamber that contained 1 mL 10% vanilla extract as odor cue.2 After a 180-sec

A further data set is described as follows: GSH trapping. Conditions: human microsomes; result in words. Type of data set: in vitro ADME.
In another data set the test system is 2B6. In words: CYP450 induction in human hepatocytes (three donors). Type of data set: cell-based. Conditions: 10 μM, human hepatocytes from three donors.
In a further data set the target is Adrenergic β2 (Homo sapiens, UniProt P07550). In words: Eurofins radioligand binding.
The test system of data set [3] is Calcium Channel L-Type, Dihydropyridine. Briefly: Eurofins radioligand binding. Conditions: Rat.
A further data set has as its target Calcium Channel N-Type (Rattus norvegicus, UniProt Q02294). Briefly: Eurofins radioligand binding.
The target in the next data set is Endothelin ETB (Homo sapiens, UniProt P24530). In words: Eurofins radioligand binding.
Data set [4] has as its target Epidermal Growth Factor (EGF) (Homo sapiens, UniProt P00533). In words: Eurofins radioligand binding.
The target in a further data set is GABAB1A (Homo sapiens, UniProt Q9UBS5). In words: Eurofins radioligand binding.
A further data set concerns the target Glucocorticoid (Homo sapiens, UniProt P04150). Briefly: Eurofins radioligand binding.
A further data set deals with Glutamate, NMDA, Agonism. In words: Eurofins radioligand binding. Conditions: Rat.
A further data set deals with Histamine H2 (Homo sapiens, UniProt P25021). Briefly: Eurofins radioligand binding.
The target of another data set is Histamine H3 (Homo sapiens, UniProt Q9Y5N1). Briefly: Eurofins radioligand binding.
Another data set deals with Neuropeptide Y Y2 (Homo sapiens, UniProt P49146). In words: Eurofins radioligand binding.
Data set [5] concerns the target Platelet Activating Factor (PAF) (Homo sapiens, UniProt P25105). Briefly: Eurofins radioligand binding.
The test system of a further data set is Thyroid Hormone. In words: Eurofins radioligand binding. Conditions: Rat.
For data set [6], the target named is Transporter, Serotonin (SERT) (Homo sapiens, UniProt P31645). In words: Eurofins radioligand binding.

“Also recorded” adds a separate entry of the source. Some results are limits rather than exact numbers.

Endothelin ETB, sequence (P24530 27-442): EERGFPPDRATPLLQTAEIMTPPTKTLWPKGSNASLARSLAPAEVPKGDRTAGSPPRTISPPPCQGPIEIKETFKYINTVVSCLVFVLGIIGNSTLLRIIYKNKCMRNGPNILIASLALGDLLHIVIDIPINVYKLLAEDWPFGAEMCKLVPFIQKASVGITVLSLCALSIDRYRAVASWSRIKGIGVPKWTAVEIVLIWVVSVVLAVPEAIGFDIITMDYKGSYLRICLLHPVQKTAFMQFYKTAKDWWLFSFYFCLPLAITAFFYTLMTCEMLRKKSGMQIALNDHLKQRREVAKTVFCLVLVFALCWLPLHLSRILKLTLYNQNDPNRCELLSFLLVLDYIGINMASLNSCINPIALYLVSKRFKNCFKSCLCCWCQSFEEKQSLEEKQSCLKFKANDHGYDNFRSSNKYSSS
CYP 2C9, sequence (P11712 whole entry): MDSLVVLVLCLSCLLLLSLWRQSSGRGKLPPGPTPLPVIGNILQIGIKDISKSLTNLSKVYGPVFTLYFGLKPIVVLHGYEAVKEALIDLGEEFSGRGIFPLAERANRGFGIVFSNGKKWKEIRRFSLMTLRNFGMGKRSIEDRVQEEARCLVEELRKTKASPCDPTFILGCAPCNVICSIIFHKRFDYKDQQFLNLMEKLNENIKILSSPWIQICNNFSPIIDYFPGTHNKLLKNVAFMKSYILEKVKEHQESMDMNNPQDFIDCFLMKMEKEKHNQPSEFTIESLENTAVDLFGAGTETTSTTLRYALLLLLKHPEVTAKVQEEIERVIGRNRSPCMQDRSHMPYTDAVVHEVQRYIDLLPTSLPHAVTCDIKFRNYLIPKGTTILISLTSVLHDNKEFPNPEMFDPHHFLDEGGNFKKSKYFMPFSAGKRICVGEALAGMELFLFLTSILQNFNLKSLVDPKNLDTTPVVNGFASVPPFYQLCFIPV
Epidermal Growth Factor (EGF), sequence (P00533 25-1210): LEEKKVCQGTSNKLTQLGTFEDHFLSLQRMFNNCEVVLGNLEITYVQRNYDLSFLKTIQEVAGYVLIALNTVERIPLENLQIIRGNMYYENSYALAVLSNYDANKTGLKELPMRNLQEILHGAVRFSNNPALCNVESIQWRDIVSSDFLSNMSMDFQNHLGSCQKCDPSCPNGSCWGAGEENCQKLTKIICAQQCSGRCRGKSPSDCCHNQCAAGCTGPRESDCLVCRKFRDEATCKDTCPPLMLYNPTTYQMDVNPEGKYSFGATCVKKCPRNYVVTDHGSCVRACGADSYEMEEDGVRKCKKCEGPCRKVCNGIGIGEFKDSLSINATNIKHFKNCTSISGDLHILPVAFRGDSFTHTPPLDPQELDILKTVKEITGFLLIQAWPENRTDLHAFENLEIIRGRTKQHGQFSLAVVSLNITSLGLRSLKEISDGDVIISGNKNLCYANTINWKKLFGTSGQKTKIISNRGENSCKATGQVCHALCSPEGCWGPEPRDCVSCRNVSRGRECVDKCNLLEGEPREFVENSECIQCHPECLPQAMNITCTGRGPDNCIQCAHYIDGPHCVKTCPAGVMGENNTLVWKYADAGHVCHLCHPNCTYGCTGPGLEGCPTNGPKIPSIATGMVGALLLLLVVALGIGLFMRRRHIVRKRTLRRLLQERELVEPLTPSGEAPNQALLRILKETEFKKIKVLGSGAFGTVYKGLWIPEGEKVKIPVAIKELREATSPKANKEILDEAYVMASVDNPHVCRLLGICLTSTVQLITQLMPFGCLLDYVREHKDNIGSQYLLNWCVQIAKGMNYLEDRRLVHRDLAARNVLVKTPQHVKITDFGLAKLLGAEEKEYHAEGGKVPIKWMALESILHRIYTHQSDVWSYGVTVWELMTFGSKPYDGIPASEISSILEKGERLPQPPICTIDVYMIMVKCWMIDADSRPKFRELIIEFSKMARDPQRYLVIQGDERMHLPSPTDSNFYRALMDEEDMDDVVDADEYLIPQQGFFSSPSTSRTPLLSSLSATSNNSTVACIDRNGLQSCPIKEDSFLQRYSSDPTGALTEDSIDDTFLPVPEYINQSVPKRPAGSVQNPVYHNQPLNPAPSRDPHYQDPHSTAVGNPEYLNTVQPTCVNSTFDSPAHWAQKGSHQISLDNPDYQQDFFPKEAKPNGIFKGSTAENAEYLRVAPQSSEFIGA
Transporter, Serotonin (SERT), sequence (P31645 whole entry): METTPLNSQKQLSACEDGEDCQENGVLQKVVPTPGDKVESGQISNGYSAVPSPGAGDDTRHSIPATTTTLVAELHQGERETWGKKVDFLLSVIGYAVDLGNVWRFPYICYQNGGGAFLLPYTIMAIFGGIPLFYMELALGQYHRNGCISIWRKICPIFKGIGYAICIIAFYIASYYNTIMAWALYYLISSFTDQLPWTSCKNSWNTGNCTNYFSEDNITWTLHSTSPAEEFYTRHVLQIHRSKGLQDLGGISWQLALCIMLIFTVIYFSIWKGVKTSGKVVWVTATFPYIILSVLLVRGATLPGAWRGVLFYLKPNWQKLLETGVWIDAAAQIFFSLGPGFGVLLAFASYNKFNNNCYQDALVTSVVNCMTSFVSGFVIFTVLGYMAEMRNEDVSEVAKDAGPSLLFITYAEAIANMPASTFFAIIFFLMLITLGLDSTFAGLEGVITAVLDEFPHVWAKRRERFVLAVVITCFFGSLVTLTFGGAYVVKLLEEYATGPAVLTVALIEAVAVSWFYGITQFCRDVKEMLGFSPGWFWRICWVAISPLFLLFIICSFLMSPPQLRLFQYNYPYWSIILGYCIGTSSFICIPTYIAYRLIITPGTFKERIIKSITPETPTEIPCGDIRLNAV
Adrenergic β2, sequence (P07550 whole entry): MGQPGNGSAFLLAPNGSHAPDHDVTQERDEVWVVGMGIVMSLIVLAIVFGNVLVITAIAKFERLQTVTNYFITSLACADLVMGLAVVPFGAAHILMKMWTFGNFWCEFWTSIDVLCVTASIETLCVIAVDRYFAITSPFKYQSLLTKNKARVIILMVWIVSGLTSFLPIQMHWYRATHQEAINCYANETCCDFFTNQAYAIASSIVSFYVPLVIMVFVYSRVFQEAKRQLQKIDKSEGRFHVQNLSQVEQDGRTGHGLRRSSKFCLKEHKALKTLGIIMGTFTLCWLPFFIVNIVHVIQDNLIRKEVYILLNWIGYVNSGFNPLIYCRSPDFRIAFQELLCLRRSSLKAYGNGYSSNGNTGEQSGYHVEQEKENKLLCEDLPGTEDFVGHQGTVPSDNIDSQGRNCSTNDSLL
Glucocorticoid, sequence (P04150 whole entry): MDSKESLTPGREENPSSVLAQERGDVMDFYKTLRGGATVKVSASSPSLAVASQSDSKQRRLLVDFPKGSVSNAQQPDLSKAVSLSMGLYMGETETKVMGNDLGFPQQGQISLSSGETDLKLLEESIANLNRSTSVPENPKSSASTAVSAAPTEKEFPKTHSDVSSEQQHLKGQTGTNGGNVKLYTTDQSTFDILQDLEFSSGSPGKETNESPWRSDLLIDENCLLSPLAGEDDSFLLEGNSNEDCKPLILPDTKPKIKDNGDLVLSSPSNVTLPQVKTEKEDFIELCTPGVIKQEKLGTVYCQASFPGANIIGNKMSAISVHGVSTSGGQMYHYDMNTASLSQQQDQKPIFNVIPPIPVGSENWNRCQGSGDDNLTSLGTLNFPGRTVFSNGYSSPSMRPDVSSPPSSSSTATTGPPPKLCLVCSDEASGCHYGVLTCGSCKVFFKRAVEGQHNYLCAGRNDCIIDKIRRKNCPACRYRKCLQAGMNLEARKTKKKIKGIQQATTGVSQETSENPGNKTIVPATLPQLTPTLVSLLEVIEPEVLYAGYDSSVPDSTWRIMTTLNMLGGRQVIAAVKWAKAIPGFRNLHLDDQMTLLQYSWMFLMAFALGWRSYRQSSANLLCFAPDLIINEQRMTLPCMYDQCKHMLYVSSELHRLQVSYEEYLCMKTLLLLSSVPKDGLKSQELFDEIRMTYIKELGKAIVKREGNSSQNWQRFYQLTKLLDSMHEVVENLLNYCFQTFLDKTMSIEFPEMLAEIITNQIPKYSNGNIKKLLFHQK
CYP 2C19, sequence (P33261 whole entry): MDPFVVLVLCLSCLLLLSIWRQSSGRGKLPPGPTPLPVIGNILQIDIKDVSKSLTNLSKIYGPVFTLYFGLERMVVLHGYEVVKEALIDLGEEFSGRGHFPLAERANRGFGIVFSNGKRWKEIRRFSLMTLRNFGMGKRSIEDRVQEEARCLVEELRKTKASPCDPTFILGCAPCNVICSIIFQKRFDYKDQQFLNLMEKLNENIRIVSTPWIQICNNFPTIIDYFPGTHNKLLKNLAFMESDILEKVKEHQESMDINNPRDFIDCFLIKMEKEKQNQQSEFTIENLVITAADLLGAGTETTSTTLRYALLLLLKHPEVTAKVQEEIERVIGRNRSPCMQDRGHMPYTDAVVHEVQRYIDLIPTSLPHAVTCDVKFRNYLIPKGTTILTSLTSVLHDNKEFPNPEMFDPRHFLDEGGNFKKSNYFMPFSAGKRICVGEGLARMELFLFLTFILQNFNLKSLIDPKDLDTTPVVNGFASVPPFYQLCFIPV
Histamine H3, sequence (Q9Y5N1 whole entry): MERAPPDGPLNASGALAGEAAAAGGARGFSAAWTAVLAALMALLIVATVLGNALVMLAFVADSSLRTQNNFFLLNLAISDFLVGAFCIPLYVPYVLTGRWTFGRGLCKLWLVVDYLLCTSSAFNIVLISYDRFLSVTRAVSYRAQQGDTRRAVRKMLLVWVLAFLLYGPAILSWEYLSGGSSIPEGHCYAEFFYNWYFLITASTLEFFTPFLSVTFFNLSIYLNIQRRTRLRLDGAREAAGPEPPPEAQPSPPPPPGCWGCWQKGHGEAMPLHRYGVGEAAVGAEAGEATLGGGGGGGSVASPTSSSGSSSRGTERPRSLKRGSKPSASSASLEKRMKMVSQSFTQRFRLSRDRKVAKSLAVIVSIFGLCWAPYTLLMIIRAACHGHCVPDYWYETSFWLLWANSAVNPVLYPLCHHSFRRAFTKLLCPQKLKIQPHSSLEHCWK

On to `Cn1cc2c(-c3cc(F)c(CN4Cc5ncccc5C4=O)c(F)c3)cccc2n1` [compound 1, reference compound], for which the “cholinergic toxicity in Phase I SAD trial” value in data set [1] is “without any observed cholinergic toxicity”.

With `Cn1cc2c(-c3cc(F)c(CN4Cc5ncccc5C4=O)c(F)c3)ccc(C(C)(C)O)c2n1` [compound 7], the fraction unbound at 6 h, 5 µM in [2] was determined as 0.023. In addition, the half-maximal inhibitory concentration (IC50) against CYP 2C9 and against CYP 2C19 was above 30 µM in each case. For the same molecule, the “total brain concentration at CFC MED” value in the data set with Sprague-Dawley rats (0.3 mg/kg PO, rat) is on record as 58 nM. In addition, the “effect on acquisition of CFC” value in the data set with Sprague-Dawley rats (0.03-3 mg/kg PO, result in words) is “robust dose-dependent enhancement in the acquisition of contextual fear conditioning; also recorded: dose-dependently enhanced the acquisition of CFC”. For the same molecule, in the data set with Sprague-Dawley rats (PO, 10% Tween 80 in water, male Sprague-Dawley rats), the “minimum effective dose (MED) in rat CFC” value came to 0.3 mg/kg. The GSH trapping entry in “GSH trapping” is “no evidence of GSH trapping”. This molecule returned a 2B6 induction in the data set with 2B6 of 11.5%. Also, the inhibition at 10 µM on Adrenergic β2 was -4%; at Calcium Channel N-Type it was -11%; at Endothelin ETB, 6%; in data set [4], -14%; on GABAB1A, 7%; on Glucocorticoid, 9%. Further, the inhibition at 10 µM on Histamine H2 was 2%; at Histamine H3, -11%; on Neuropeptide Y Y2, -9%; in data set [5] it was 1%; in data set [6], -1%. Besides, the “% Inhibition at 10 µM” value was 59% in [3]; -3% with Glutamate, NMDA, Agonism; -1% with Thyroid Hormone.

One may read the IC50 as the concentration that inhibits the measured activity by half. Read a high IC50 as weaker potency in that assay. By inhibition is commonly meant the change of the read-out against control, counted positive when it falls. Usually % Inhibition stands for the change of the read-out against control, counted positive when it falls.
